Where two headings read alike, the source gives them in different places.
What was measured:
Test in all cases: Kinase selectivity, P33-radiolabeled assay
Assay type in all cases: biochemical
Settings in all cases: 10 μM ATP
ERK2/MAPK1 = molecular target: T1, ERK2/MAPK1 (Homo sapiens, UniProt P28482)
T1 construct: purchased Reaction Biology Corp
Method in brief: (§1)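 Activity relative to DMSO controls (%) was measured for compound at 10 μM. Assays ran at 10 μM ATP, in duplicate.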

TESK1 = molecular target: T2, TESK1 (Homo sapiens, UniProt Q15569)
T2 construct: purchased Reaction Biology Corp
Method in brief: as §1

CK1epsilon = molecular target: T3, CK1epsilon (Homo sapiens, UniProt P49674)
T3 construct: purchased Reaction Biology Corp
Method in brief: as §1

PKCepsilon = molecular target: T4, PKCepsilon (Homo sapiens, UniProt Q02156)
T4 construct: purchased Reaction Biology Corp
T4 sequence (Q02156 1-737): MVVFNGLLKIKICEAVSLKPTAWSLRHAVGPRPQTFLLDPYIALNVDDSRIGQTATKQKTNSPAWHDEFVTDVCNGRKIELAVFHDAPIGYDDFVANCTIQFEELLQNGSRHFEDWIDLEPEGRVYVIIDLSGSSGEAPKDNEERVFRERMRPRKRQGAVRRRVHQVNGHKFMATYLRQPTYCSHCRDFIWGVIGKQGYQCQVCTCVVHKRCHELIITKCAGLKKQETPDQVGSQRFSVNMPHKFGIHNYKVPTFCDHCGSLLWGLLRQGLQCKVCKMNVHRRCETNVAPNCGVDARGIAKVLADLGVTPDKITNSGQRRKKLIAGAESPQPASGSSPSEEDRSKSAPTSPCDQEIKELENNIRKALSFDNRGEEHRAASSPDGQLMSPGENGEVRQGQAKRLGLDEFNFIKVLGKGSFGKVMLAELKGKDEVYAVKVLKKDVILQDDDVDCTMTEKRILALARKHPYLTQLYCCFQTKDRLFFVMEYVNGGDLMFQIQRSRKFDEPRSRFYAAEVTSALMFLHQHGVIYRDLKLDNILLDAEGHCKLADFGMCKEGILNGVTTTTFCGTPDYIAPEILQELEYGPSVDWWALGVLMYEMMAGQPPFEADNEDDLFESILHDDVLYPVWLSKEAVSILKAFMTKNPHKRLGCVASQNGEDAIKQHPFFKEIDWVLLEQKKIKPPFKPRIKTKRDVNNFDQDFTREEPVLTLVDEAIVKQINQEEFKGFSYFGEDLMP
Method in brief: as §1

PHKg1 = molecular target: T5, PHKg1 (Homo sapiens, UniProt Q16816)
T5 construct: purchased Reaction Biology Corp
Method in brief: as §1

CAMK4 = molecular target: T6, CAMK4 (Homo sapiens, UniProt Q16566)
T6 construct: purchased Reaction Biology Corp
T6 sequence (Q16566 1-473): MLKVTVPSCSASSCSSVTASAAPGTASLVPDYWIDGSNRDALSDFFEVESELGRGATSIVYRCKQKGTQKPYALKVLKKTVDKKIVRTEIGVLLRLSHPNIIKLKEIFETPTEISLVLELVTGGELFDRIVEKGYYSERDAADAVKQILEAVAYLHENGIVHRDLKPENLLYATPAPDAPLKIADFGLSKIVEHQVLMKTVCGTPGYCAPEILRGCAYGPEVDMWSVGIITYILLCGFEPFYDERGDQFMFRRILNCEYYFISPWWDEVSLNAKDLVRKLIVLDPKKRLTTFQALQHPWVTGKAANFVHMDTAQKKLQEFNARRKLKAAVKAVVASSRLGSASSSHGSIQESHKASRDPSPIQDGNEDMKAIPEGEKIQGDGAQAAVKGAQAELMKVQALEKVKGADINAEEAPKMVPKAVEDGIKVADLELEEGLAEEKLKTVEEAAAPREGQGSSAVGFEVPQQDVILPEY
Method in brief: as §1

BMPR2 = molecular target: T7, BMPR2 (Homo sapiens, UniProt Q13873)
T7 construct: purchased Reaction Biology Corp
T7 sequence (Q13873 27-1038): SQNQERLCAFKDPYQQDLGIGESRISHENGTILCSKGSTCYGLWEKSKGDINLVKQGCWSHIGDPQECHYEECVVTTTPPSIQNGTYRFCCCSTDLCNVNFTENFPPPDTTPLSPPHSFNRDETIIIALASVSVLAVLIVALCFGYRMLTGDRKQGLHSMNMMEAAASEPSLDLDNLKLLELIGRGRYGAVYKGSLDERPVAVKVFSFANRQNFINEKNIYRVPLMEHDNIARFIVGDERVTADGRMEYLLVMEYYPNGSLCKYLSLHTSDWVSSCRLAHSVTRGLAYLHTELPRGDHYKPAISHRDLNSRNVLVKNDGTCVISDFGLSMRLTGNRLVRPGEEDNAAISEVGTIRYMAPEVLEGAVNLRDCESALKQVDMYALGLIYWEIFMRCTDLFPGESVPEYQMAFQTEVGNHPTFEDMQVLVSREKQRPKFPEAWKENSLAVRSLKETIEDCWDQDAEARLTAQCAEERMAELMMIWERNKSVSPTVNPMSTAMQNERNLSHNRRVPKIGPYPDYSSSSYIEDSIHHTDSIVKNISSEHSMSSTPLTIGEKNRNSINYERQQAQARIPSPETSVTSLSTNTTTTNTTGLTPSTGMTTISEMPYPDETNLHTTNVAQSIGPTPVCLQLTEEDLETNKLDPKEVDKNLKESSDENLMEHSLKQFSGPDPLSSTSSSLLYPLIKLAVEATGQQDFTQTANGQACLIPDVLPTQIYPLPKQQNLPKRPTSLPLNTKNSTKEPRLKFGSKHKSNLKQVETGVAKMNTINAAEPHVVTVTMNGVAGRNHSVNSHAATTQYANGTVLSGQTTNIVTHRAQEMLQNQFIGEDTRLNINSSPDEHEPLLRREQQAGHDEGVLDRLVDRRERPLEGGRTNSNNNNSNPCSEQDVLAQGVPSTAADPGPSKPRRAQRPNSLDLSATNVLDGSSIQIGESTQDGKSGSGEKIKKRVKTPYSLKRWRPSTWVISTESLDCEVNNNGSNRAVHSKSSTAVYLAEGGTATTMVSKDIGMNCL
Method in brief: as §1

PYK2 = molecular target: T8, PYK2 (Homo sapiens, UniProt Q14289)
T8 construct: purchased Reaction Biology Corp
Method in brief: as §1

[1] = read-out: % Enzyme Activity (relative to DMSO controls) AVG
[2] = read-out: % Enzyme Activity (relative to DMSO controls) Data 1
[3] = read-out: % Enzyme Activity (relative to DMSO controls) Data 2

T8 sequence (Q14289 whole entry): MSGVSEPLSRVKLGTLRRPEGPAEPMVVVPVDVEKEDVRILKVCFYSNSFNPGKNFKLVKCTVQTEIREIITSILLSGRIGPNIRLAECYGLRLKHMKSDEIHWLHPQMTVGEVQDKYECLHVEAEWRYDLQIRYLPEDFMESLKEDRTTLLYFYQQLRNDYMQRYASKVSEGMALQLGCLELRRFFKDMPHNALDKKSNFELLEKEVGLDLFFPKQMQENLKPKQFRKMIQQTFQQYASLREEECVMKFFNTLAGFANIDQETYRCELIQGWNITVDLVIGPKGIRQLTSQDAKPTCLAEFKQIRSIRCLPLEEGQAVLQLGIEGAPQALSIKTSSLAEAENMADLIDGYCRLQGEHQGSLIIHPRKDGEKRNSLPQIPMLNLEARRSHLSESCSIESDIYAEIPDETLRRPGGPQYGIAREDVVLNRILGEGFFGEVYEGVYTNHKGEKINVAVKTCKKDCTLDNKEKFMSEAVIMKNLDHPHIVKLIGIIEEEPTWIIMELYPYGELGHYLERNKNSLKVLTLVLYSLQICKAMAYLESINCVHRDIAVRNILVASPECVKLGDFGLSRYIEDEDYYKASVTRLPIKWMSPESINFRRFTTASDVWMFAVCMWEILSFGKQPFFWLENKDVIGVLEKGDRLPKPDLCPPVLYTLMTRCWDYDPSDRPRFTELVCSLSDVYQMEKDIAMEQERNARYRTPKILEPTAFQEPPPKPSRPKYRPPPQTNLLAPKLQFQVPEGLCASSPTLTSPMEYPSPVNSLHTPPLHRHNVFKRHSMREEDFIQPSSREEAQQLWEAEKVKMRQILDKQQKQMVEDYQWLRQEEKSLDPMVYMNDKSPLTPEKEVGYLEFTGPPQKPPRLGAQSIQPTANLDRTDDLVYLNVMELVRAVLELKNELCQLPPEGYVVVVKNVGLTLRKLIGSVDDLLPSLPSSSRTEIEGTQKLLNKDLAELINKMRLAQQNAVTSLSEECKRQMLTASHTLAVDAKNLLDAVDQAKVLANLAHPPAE
T3 sequence (P49674 whole entry): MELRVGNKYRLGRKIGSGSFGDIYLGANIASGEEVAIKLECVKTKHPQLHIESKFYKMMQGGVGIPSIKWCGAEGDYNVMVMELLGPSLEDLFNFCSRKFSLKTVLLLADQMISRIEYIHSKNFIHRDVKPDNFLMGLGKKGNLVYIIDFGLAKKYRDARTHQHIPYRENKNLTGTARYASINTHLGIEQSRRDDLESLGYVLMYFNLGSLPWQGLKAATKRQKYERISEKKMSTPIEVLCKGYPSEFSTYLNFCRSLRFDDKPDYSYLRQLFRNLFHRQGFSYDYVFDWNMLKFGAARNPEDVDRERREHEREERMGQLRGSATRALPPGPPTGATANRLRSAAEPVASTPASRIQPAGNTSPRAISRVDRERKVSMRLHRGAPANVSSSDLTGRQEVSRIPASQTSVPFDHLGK
T5 sequence (Q16816 whole entry): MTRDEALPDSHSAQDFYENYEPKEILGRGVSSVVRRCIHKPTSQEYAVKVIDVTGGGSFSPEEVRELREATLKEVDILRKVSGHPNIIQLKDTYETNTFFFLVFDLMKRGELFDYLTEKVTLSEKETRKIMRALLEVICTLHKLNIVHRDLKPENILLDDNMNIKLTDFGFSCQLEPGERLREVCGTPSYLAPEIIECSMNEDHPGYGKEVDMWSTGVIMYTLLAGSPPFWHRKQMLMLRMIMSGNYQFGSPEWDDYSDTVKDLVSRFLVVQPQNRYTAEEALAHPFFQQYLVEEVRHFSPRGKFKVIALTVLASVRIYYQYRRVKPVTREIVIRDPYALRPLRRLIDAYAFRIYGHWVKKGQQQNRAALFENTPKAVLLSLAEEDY
T1 sequence (P28482 whole entry): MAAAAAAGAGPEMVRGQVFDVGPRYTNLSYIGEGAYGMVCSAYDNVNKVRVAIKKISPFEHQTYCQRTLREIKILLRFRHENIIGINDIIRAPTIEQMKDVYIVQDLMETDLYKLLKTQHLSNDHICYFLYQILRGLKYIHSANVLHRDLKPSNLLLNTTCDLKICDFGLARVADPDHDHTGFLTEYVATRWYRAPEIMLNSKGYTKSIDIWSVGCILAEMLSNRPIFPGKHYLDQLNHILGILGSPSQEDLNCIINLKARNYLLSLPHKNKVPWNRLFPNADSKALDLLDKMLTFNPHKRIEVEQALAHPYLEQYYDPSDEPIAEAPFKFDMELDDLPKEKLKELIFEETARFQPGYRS
T2 sequence (Q15569 whole entry): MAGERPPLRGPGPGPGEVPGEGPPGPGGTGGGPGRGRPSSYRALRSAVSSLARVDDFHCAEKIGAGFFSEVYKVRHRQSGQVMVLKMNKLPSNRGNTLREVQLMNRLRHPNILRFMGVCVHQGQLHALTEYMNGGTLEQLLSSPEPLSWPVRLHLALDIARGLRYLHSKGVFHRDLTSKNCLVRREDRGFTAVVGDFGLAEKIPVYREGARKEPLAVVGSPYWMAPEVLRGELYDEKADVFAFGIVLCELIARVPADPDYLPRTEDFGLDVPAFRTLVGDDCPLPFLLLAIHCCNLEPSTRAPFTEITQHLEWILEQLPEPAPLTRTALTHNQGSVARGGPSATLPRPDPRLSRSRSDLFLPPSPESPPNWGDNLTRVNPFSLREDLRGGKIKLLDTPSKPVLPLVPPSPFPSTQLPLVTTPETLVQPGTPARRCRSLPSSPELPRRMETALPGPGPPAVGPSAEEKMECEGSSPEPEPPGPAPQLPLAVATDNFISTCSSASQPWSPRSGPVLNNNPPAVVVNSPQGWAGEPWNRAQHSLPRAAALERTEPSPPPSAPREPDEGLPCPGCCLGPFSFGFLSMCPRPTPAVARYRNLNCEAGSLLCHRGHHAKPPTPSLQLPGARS

## CC(C)(C)C(=O)N1N=CC[C@H]1c1ccccc1 [GSK′963]
ERK2/MAPK1; [1]
  remaining activity at 10 µM: 97.5%
ERK2/MAPK1; [2]
  remaining activity at 10 µM: 96.5%
ERK2/MAPK1; [3]
  remaining activity at 10 µM: 98.5%
TESK1; [1]
  remaining activity at 10 µM: 116%
TESK1; [2]
  remaining activity at 10 µM: 112%
TESK1; [3]
  remaining activity at 10 µM: 120%
CK1epsilon; [1]
  remaining activity at 10 µM: 93.4%
CK1epsilon; [2]
  remaining activity at 10 µM: 96.7%
CK1epsilon; [3]
  remaining activity at 10 µM: 90.2%
PKCepsilon; [1]
  remaining activity at 10 µM: 105%
PKCepsilon; [2]
  remaining activity at 10 µM: 103%
PKCepsilon; [3]
  remaining activity at 10 µM: 106%
PHKg1; [1]
  remaining activity at 10 µM: 102%
PHKg1; [2]
  remaining activity at 10 µM: 103%
PHKg1; [3]
  remaining activity at 10 µM: 101%
CAMK4; [1]
  remaining activity at 10 µM: 96.7%
CAMK4; [2]
  remaining activity at 10 µM: 95.5%
CAMK4; [3]
  remaining activity at 10 µM: 97.9%
BMPR2; [1]
  remaining activity at 10 µM: 103%
BMPR2; [2]
  remaining activity at 10 µM: 102%
BMPR2; [3]
  remaining activity at 10 µM: 103%
PYK2; [1]
  remaining activity at 10 µM: 103%
PYK2; [2]
  remaining activity at 10 µM: 103%
PYK2; [3]
  remaining activity at 10 µM: 103%

— article PMC4979471 (Cell Death Discovery, 2015)
